Experimental data reported in PubChem BioAssay (NCI).
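Protocol summary: plate cells (96-well), add compound at 5 concentrations, incubate 48 h, interpolate endpoints linearly. The concentration for full growth arrest is given as TGI.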

How the values were obtained:
Assay in all cases: NCI tumour cell line growth inhibition, 48 h
786-0 renal = test system: 786-0 renal
A498 renal = test system: A498 renal
A549 NSCLC = test system: A549 NSCLC
ACHN renal = test system: ACHN renal
BT-549 breast = test system: BT-549 breast
CAKI-1 renal = test system: CAKI-1 renal
CCRF-CEM leukemia = test system: CCRF-CEM leukemia
COLO 205 colon = test system: COLO 205 colon
DU-145 prostate = test system: DU-145 prostate
EKVX NSCLC = test system: EKVX NSCLC
HCC-2998 colon = test system: HCC-2998 colon
HCT-116 colon = test system: HCT-116 colon
HCT-15 colon = test system: HCT-15 colon
HL-60(TB) leukemia = test system: HL-60(TB) leukemia
HOP-62 NSCLC = test system: HOP-62 NSCLC
HOP-92 NSCLC = test system: HOP-92 NSCLC
HS 578T breast = test system: HS 578T breast
HT29 colon = test system: HT29 colon
IGROV1 ovarian = test system: IGROV1 ovarian
K-562 leukemia = test system: K-562 leukemia
KM12 colon = test system: KM12 colon
M14 melanoma = test system: M14 melanoma
MCF7 breast = test system: MCF7 breast
MDA-MB-231 breast = test system: MDA-MB-231 breast
MDA-MB-435 = test system: MDA-MB-435
MOLT-4 leukemia = test system: MOLT-4 leukemia
NCI-H226 lung = test system: NCI-H226 lung
NCI-H23 lung = test system: NCI-H23 lung
NCI-H460 lung = test system: NCI-H460 lung
NCI-H522 lung = test system: NCI-H522 lung
NCI/ADR-RES ovarian = test system: NCI/ADR-RES ovarian
OVCAR-3 ovarian = test system: OVCAR-3 ovarian
OVCAR-4 ovarian = test system: OVCAR-4 ovarian
OVCAR-5 ovarian = test system: OVCAR-5 ovarian
OVCAR-8 ovarian = test system: OVCAR-8 ovarian
PC-3 prostate = test system: PC-3 prostate
RPMI-8226 leukemia = test system: RPMI-8226 leukemia
RXF 393 renal = test system: RXF 393 renal
SF-268 CNS = test system: SF-268 CNS
SF-295 CNS = test system: SF-295 CNS
SF-539 CNS = test system: SF-539 CNS
SK-MEL-2 melanoma = test system: SK-MEL-2 melanoma
SK-MEL-28 melanoma = test system: SK-MEL-28 melanoma
SK-MEL-5 melanoma = test system: SK-MEL-5 melanoma
SK-OV-3 ovarian = test system: SK-OV-3 ovarian
SN12C renal = test system: SN12C renal
SNB-19 CNS = test system: SNB-19 CNS
SNB-75 CNS = test system: SNB-75 CNS
SW-620 colon = test system: SW-620 colon
T-47D breast = test system: T-47D breast
TK-10 renal = test system: TK-10 renal
U251 CNS = test system: U251 CNS
UACC-257 melanoma = test system: UACC-257 melanoma
UACC-62 melanoma = test system: UACC-62 melanoma
UO-31 renal = test system: UO-31 renal

SMILES: ClCCCc1ccccc1C1=NCCc2ccccc21
- TGI (786-0 renal): > 100 µM
- TGI (A498 renal): > 100 µM
- TGI (A549 NSCLC): > 100 µM
- TGI (ACHN renal): > 100 µM
- TGI (BT-549 breast): > 100 µM
- TGI (CAKI-1 renal): > 100 µM
- TGI (CCRF-CEM leukemia): > 100 µM
- TGI (COLO 205 colon): 52.9 µM
- TGI (DU-145 prostate): > 100 µM
- TGI (EKVX NSCLC): > 100 µM
- TGI (HCC-2998 colon): > 100 µM
- TGI (HCT-116 colon): > 100 µM
- TGI (HCT-15 colon): > 100 µM
- TGI (HL-60(TB) leukemia): > 100 µM
- TGI (HOP-62 NSCLC): > 100 µM
- TGI (HOP-92 NSCLC): > 100 µM
- TGI (HS 578T breast): > 100 µM
- TGI (HT29 colon): > 100 µM
- TGI (IGROV1 ovarian): > 100 µM
- TGI (K-562 leukemia): > 100 µM
- TGI (KM12 colon): > 100 µM
- TGI (M14 melanoma): > 100 µM
- TGI (MCF7 breast): > 100 µM
- TGI (MDA-MB-231 breast): > 100 µM
- TGI (MDA-MB-435): > 100 µM
- TGI (MOLT-4 leukemia): > 100 µM
- TGI (NCI-H226 lung): > 100 µM
- TGI (NCI-H23 lung): > 100 µM
- TGI (NCI-H460 lung): > 100 µM
- TGI (NCI-H522 lung): > 100 µM
- TGI (NCI/ADR-RES ovarian): > 100 µM
- TGI (OVCAR-3 ovarian): > 100 µM
- TGI (OVCAR-4 ovarian): > 100 µM
- TGI (OVCAR-5 ovarian): > 100 µM
- TGI (OVCAR-8 ovarian): > 100 µM
- TGI (PC-3 prostate): > 100 µM
- TGI (RPMI-8226 leukemia): 23.3 µM
- TGI (RXF 393 renal): > 100 µM
- TGI (SF-268 CNS): > 100 µM
- TGI (SF-295 CNS): > 100 µM
- TGI (SF-539 CNS): > 100 µM
- TGI (SK-MEL-2 melanoma): > 100 µM
- TGI (SK-MEL-28 melanoma): > 100 µM
- TGI (SK-MEL-5 melanoma): 40.5 µM
- TGI (SK-OV-3 ovarian): > 100 µM
- TGI (SN12C renal): > 100 µM
- TGI (SNB-19 CNS): > 100 µM
- TGI (SNB-75 CNS): > 100 µM
- TGI (SW-620 colon): > 100 µM
- TGI (T-47D breast): > 100 µM
- TGI (TK-10 renal): > 100 µM
- TGI (U251 CNS): > 100 µM
- TGI (UACC-257 melanoma): > 100 µM
- TGI (UACC-62 melanoma): > 100 µM
- TGI (UO-31 renal): > 100 µM
